We go through 64 compounds from PubChem BioAssay AID624372 (Broad Institute, 2012).

Each structure is given as a SMILES string. Inconclusive results are not listed. The source made the active and inactive calls.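 The calls were made as follows: active = fitted curve reaches -35% activity change below twice the top valid dose, with every replicate test called active; inconclusive = replicate tests disagree on the call; inactive = every replicate test called inactive.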

Test system in one assay: not listed separately
In words: HEK293T cell viability, dose response, counter-screen for EBV LMP1 inhibitor project, CellTiter-Glo luminescence, dry powder (AID 624372). The settings on record: HEK293T viability, CellTiter-Glo ATP luminescence, 48 h; at 10 µM (top of the series). (A counterscreen serves to expose hits that act by an unwanted route or on another target.)
For the compound `C/C(=N\NC(=S)N1CC2CCC(CC2)C1)c1ccncn1`, the activity change, negative = cytotoxicity is 18.8% (inactive).

The same assay, now with this note: HEK293T viability, CellTiter-Glo ATP luminescence, 48 h; at 15 µM (top of the series).
As for `C=C1C[C@]23C[C@@]1(O)CC[C@H]2[C@@]12C=C[C@H](O)[C@@](C)(C(=O)O1)[C@H]2[C@@H]3C(=O)O`, the activity change, negative = cytotoxicity was 15.6% (inactive).

Staying with this assay, now noted: HEK293T viability, CellTiter-Glo ATP luminescence, 48 h; at 19.5 µM (top of the series).
Turning to `S=C(N/N=C(\c1ccccc1)c1ccccn1)N(Cc1ccccn1)Cc1ccccn1`, the activity change, negative = cytotoxicity was 8.82% (inactive).
As for `CSC(=S)N/N=C(\C)c1cccc(C)n1`, the activity change, negative = cytotoxicity was 17.8% (inactive).
Consider `COc1ccccc1NC(=S)N/N=C(\C)c1ccccn1`, for which the activity change, negative = cytotoxicity was 3.97% (inactive).
Same read-out and setting: next, `C/C(=N\NC(=S)Nc1cccc(C)c1)c1ccccn1`: -10.2% (inactive).

Staying with this assay, now noted: HEK293T viability, CellTiter-Glo ATP luminescence, 48 h; at 26 µM (top of the series).
As for `O=C(CCc1ccccc1)NC(c1cccs1)c1cc(Cl)c2cccnc2c1O` (centres undefined), the activity change, negative = cytotoxicity was 6.13% (inactive).
Take `Cc1ccc(S(=O)(=O)NC(CC(C)C)C(=O)NCC(c2ccco2)N2CCCCC2)cc1` (centres undefined): the activity change, negative = cytotoxicity was 2.47% (inactive).
On to `C[C@@H]1CCCCO[C@H](CN(C)C(=O)CCC(F)(F)F)[C@H](C)CN([C@@H](C)CO)C(=O)c2cc(NC(=O)CCC(F)(F)F)ccc2O1`, for which the activity change, negative = cytotoxicity is -7.41% (inactive).
Same read-out and setting: next, `CC1CN(C(=O)CSc2nnc3c4ccccc4n(Cc4cccc(Cl)c4)c3n2)CCN1C(=O)c1ccccc1F` (centres undefined): 19.4% (inactive).
For `COc1ccc2nc(Nc3nc(C)c(CCC(C)C)c(=O)[nH]3)nc(C)c2c1`, the activity change, negative = cytotoxicity was 4.99% (inactive).
Still for that read-out and setting: next, `CC12CCC3C(CC=C4CC(O)CCC43CO)C1CCC2OC(=O)c1ccccc1` (centres undefined): -2.56% (inactive).
The same measure, in the same setting: next, `O=C1/C(=C/c2ccncc2)SC(=S)N1Cc1ccccc1`: 7.62% (inactive); `C[C@@H]1CCCCO[C@H](CN(C)C(=O)c2ccccc2)[C@H](C)CN([C@@H](C)CO)C(=O)c2cc(NC(=O)Nc3ccc(F)cc3)ccc2O1`: 5.32% (inactive).
Same read-out and setting: next, `Cc1ccc(NC(=O)C2CCN(S(=O)(=O)c3ccc4c(c3)NC(=O)C(C)S4)CC2)cc1Cl` (centres undefined): 44.9% (inactive); `O=C(CSc1nnc2c3ccccc3n(Cc3ccccc3)c2n1)NCc1ccco1`: -2.78% (inactive).
`COc1ccc(-c2csc3ncnc(NCCN4CCOCC4)c23)cc1`: the activity change, negative = cytotoxicity is 7.09% (inactive).
With `c1ccc(-c2cn3c4c(sc3n2)CCCC4)cc1`, the activity change, negative = cytotoxicity is 3.96% (inactive).
Turning to `C[C@@H]1CCCCO[C@H](CN(C)CC2CCCCC2)[C@H](C)CN([C@@H](C)CO)C(=O)c2cc(NC(=O)NC3CCCCC3)ccc2O1`, the activity change, negative = cytotoxicity was 4.75% (inactive).
Turning to `CNC[C@@H]1Oc2ccc(NS(=O)(=O)c3cn(C)cn3)cc2CC(=O)N([C@H](C)CO)C[C@@H]1C`, the activity change, negative = cytotoxicity was -4.73% (inactive).
Turning to `C[C@@H]1CCCCO[C@H](CN(C)S(=O)(=O)c2ccccc2)[C@@H](C)CN([C@@H](C)CO)C(=O)c2cc(N(C)C)ccc2O1`, the activity change, negative = cytotoxicity was 16.8% (inactive).
Same read-out and setting: as for `c1ccc(Cn2c3ccccc3c3nnc(SCCN4CCCCC4)nc32)cc1`, the figure is -15% (inactive).
As for `O=C(Nc1cc(C(F)(F)F)cc(C(F)(F)F)c1)Nc1cnn(-c2ccc([N+](=O)[O-])cc2)c1C(F)(F)F`, the activity change, negative = cytotoxicity was 5.06% (inactive).
On the same count and under the same terms, next, `C=CCN1Cc2ccccc2[C@@H]2OC(c3ccc(OCCCO)cc3)=N[C@]2(CCC(=O)OC(C)(C)C)C1=O`: 6.61% (inactive).
Still for that read-out and setting: as for `Cc1cc(NC(=O)c2ccc3c(c2)OCCO3)no1`, the figure is 6.92% (inactive); as for `CCc1ccc(/C=C2\SC(=S)N(CCCC(=O)Nc3ccccn3)C2=O)cc1`, 1.67% (inactive).
Still for that read-out and setting: next, `Oc1cccc(C(Nc2nccs2)c2ccc3cccnc3c2O)c1` (centres undefined): 4.52% (inactive).
For the compound `C[C@@H]1CCCCO[C@@H](CN(C)Cc2ccccc2)[C@H](C)CN([C@H](C)CO)C(=O)c2cc(NC(=O)Nc3ccc4c(c3)OCO4)ccc2O1`, the activity change, negative = cytotoxicity is 1.15% (inactive).
Still for that read-out and setting: next, `COc1ccccc1[C@]1(C)ON(c2ccccc2C(F)(F)F)C1=O`: 21.8% (inactive); `CC(=O)Nc1nc(C)c(-c2csc(Nc3ccc(O)cc3)n2)s1`: 2.53% (inactive); `CCn1c2ccccc2c2cc(/C=N/n3cnnc3)ccc21`: 12.2% (inactive).
Same read-out and setting: as for `C[C@@H]1CCCCO[C@H](CN(C)C(=O)NC2CCCCC2)[C@H](C)CN([C@@H](C)CO)C(=O)c2cc(NC(=O)C3CCCCC3)ccc2O1`, the figure is 3.97% (inactive); as for `C[C@@H]1CN([C@@H](C)CO)C(=O)c2cc(NC(=O)Nc3ccc4c(c3)OCO4)ccc2O[C@H]1CN(C)CC1CCCCC1`, -4.73% (inactive); as for `CSc1nc(-c2ccc(C)cc2)nc(C(Cl)Cl)n1`, 1.77% (inactive).
Regarding `O=c1[nH]c(Nc2nc3ccccc3o2)nc2c1CCCC2`, the activity change, negative = cytotoxicity was -4.82% (inactive).
Same read-out and setting: next, `COc1ccc(C(=O)Nc2ccc3[nH]ccc3c2)cc1`: 12.8% (inactive); `CCc1ccc(/C=C/C(=O)C2C(=O)c3ccccc3C2=O)cc1`: 1.92% (inactive); `COc1cccc(/C=N/Nc2ncnc3c2ncn3Cc2ccccc2)c1O`: 15.7% (inactive).
Same read-out and setting: next, `CCN1CCN(C(c2cccnc2)c2cc(Cl)c3cccnc3c2O)CC1` (centres undefined): 14% (inactive); `C[C@H](CO)N1C[C@H](C)[C@@H](CN(C)CC2CC2)OCCCC[C@H](C)Oc2ccc(NC(=O)Nc3cccc4ccccc34)cc2C1=O`: 33.4% (inactive).
Still for that read-out and setting: next, `C[C@@H]1CN([C@@H](C)CO)C(=O)c2cc(NC(=O)Nc3ccc(C(F)(F)F)cc3)ccc2O[C@@H](C)CCCCO[C@H]1CN(C)Cc1ccc(C(F)(F)F)cc1`: -3.84% (inactive); `COc1ccc(-c2cc3nc4n(c(=O)c3s2)CCC4)cc1`: 3.13% (inactive).
Turning to `Cc1ccc(S(=O)(=O)Nc2ccc3c(c2)C(=O)N([C@@H](C)CO)C[C@H](C)[C@@H](CN(C)C(=O)CCC(F)(F)F)OCCCC[C@H](C)O3)cc1`, the activity change, negative = cytotoxicity was 0.533% (inactive).
Consider `COc1ccc2[nH]c(C(=O)N/N=C/c3ccc(O)cc3O)cc2c1`, for which the activity change, negative = cytotoxicity is 3.87% (inactive).
For the compound `CC1=C(C(=O)OCc2ccc3c(c2)OCO3)C(c2ccc(F)cc2)NC(=O)N1` (centres undefined), the activity change, negative = cytotoxicity was 1.04% (inactive).

Another assay has as its system HEK293T viability, CellTiter-Glo ATP luminescence, 48 h. Described as above.
Details: not given
`C/C(=N\NC(=S)N1CC2CCC(CC2)C1)c1cccc(C)n1`: the AC35 was 2.02 µM.
Regarding `Fc1ccc2c(c1)c1nnc(SCCN3CCOCC3)nc1n2Cc1ccccc1`, the AC35 is 16.9 µM.
Consider `CCC(Sc1nnc2c3ccccc3n(Cc3ccc(Br)cc3)c2n1)C(=O)NCCCN1CCOCC1` (centres undefined), for which the AC35 was 21.2 µM.
The same measure, in the same setting: as for `C[C@@H]1CN([C@@H](C)CO)C(=O)c2cc(NC(=O)Nc3ccc(C(F)(F)F)cc3)ccc2O[C@@H](C)CCCCO[C@@H]1CN(C)CC1CCCCC1`, the figure is 62.9 µM; as for `C/C(=N\NC(=S)Nc1cccc(Cl)c1)c1ccccn1`, 16.2 µM; as for `O=c1[nH]c(=O)n([C@H]2C[C@H](O)[C@@H](CO)O2)cc1C(F)(F)F`, 27.4 µM.
Still for that read-out and setting: as for `C/C(=N\NC(=S)N1CCCCC1)c1ccccn1`, the figure is 10.9 µM.
Consider `C/C(=N\NC(=S)N1CCCC1)c1ccccn1`, for which the AC35 is 11 µM.
Still for that read-out and setting: as for `C/C(=N\NC(=S)N1CC2CCC(CC2)C1)c1cnccn1`, the figure is 7.95 µM; as for `C=C1C[C@]23C[C@@]1(O)CC[C@@H]2c1cccc(C)c1[C@@H]3C(=O)O`, 7.6 µM.
The same measure, in the same setting: as for `S=C(NCc1ccccn1)N/N=C/c1ccccn1`, the figure is 29.6 µM; as for `COCCCNC(=O)C(C)Sc1nnc2c3cc(C)ccc3n(Cc3ccccc3F)c2n1` (centres undefined), 56 µM; as for `C/C(=N\NC(=S)N1CCN(c2ccccn2)CC1)c1ccccn1`, 11.3 µM.
For the compound `Cc1ccnc(NC(=O)c2ccc(C(=O)c3ccccc3)cc2)c1`, the AC35 is 72 µM.
On the same count and under the same terms, as for `COc1ccc(NC(=O)c2ccc(OC(C)C(=O)O)cc2)cc1Cl` (centres undefined), the figure is 37.6 µM; as for `C[C@H](CO)N1C[C@H](C)[C@H](CN(C)C(=O)Nc2ccc(C(F)(F)F)cc2)OCCCC[C@H](C)Oc2ccc(NC(=O)Nc3ccc(F)cc3)cc2C1=O`, 48.2 µM.
Regarding `C/C(=N\NC(=S)N1CCCCC1)c1cccc(C)n1`, the AC35 was 0.785 µM.
Still for that read-out and setting: next, `Cc1c(NC(=O)c2cccc(NC(=O)COc3ccccc3C#N)c2)c(=O)n(-c2ccccc2)n1C`: 24.4 µM; `C/C=C/C/C=C/CCC(=O)[C@H]1O[C@H]1C(N)=O`: 18.3 µM.
